Experimental data published in the supplement of paper PMC10307832.

How the values were obtained:
Assay in all cases: relative viability (nuclei count vs DMSO), 5 days (fraction); higher = more cells survive
A549 = test system: A549
Outline: (§1)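 Lung cancer cell lines were seeded in 1536-well plates and dosed by pin tool the next day, with either a single drug or a fixed anchor-drug dose combined with five library-drug doses (not always all listed) spaced in √10 steps. Five days later, one step fixed the cells and stained their nuclei (final 0.05% Triton X-100, 1% formaldehyde, 1 ug/ml Hoechst), and nuclei were counted on 4× images. Relative viability is the nuclei count in treated wells divided by the count in vehicle wells, and each value is the median of duplicate plates.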

Calu-6 = test system: Calu-6
Outline: as §1

EBC-1 = test system: EBC-1
Outline: as §1

IA-LM = test system: IA-LM
Outline: as §1

LOU-NH91 = test system: LOU-NH91
Outline: as §1

NCI-H1299 = test system: NCI-H1299
Outline: as §1

NCI-H1703 = test system: NCI-H1703
Outline: as §1

NCI-H2009 = test system: NCI-H2009
Outline: as §1

NCI-H2405 = test system: NCI-H2405
Outline: as §1

NCI-H647 = test system: NCI-H647
Outline: as §1

**Q.** Which results are given for `CN1CCN(CCOc2cc(OC3CCOCC3)c3c(Nc4c(Cl)ccc5c4OCO5)ncnc3c2)CC1` [Saracatinib] + CS(=O)(=O)CCNCc1ccc(-c2ccc3ncnc(Nc4ccc(OCc5cccc(F)c5)c(Cl)c4)c3c2)o1 [Lapatinib] (partner 2 µM)?
**A.** relative viability (A549; first compound 0.02 µM): 1.06; relative viability (A549; first compound 0.2 µM): 1.01; relative viability (A549; first compound 0.6325 µM): 0.812; relative viability (A549; first compound 2 µM): 0.791; relative viability (Calu-6; first compound 0.02 µM): 1.08; relative viability (Calu-6; first compound 0.2 µM): 0.839; relative viability (Calu-6; first compound 0.6325 µM): 0.913; relative viability (Calu-6; first compound 2 µM): 0.745; relative viability (EBC-1; first compound 0.02 µM): 0.199; relative viability (EBC-1; first compound 0.2 µM): 0.23; relative viability (EBC-1; first compound 0.6325 µM): 0.197; relative viability (EBC-1; first compound 2 µM): 0.212; relative viability (IA-LM; first compound 0.02 µM): 0.803; relative viability (IA-LM; first compound 0.2 µM): 0.799; relative viability (IA-LM; first compound 0.6325 µM): 1.19; relative viability (IA-LM; first compound 2 µM): 0.799; relative viability (LOU-NH91; first compound 0.02 µM): 0.824; relative viability (LOU-NH91; first compound 0.2 µM): 0.713; relative viability (LOU-NH91; first compound 0.6325 µM): 0.747; relative viability (LOU-NH91; first compound 2 µM): 0.652; relative viability (NCI-H1299; first compound 0.02 µM): 0.982; relative viability (NCI-H1299; first compound 0.2 µM): 1.02; relative viability (NCI-H1299; first compound 0.6325 µM): 1; relative viability (NCI-H1299; first compound 2 µM): 0.941; relative viability (NCI-H1703; first compound 0.02 µM): 0.873; relative viability (NCI-H1703; first compound 0.2 µM): 1.02; relative viability (NCI-H1703; first compound 0.6325 µM): 0.376; relative viability (NCI-H1703; first compound 2 µM): 0.283; relative viability (NCI-H2009; first compound 0.02 µM): 0.992; relative viability (NCI-H2009; first compound 0.2 µM): 0.889; relative viability (NCI-H2009; first compound 0.6325 µM): 1.06; relative viability (NCI-H2009; first compound 2 µM): 0.772; relative viability (NCI-H2405; first compound 0.02 µM): 1.03; relative viability (NCI-H2405; first compound 0.2 µM): 0.966; relative viability (NCI-H2405; first compound 0.6325 µM): 0.984; relative viability (NCI-H2405; first compound 2 µM): 0.511; relative viability (NCI-H647; first compound 0.02 µM): 0.76; relative viability (NCI-H647; first compound 0.2 µM): 0.803; relative viability (NCI-H647; first compound 0.6325 µM): 0.894; relative viability (NCI-H647; first compound 2 µM): 0.48

**Q.** `Cc1csc(=NC2CCCCC2)n1/N=C/c1ccc(O)c(O)c1O` [MIM1] + Cc1nc(NC(=O)N2CCC[C@H]2C(N)=O)sc1-c1ccnc(C(C)(C)C(F)(F)F)c1 [Alpelisib] (partner 2 µM) was tested. Which relative viability (A549; first compound 0.2 µM) did it give?
**A.** 0.69

**Q.** And the relative viability (A549; first compound 0.6325 µM)?
**A.** 0.879

**Q.** And the relative viability (A549; first compound 2 µM)?
**A.** 0.79

**Q.** And the relative viability (A549; first compound 6.325 µM)?
**A.** 0.56

**Q.** And the relative viability (A549; first compound 20 µM)?
**A.** 0.102

**Q.** And the relative viability (Calu-6; first compound 0.2 µM)?
**A.** 0.971

**Q.** And the relative viability (Calu-6; first compound 0.6325 µM)?
**A.** 1.02

**Q.** What about the relative viability (Calu-6; first compound 2 µM) of the same compound?
**A.** 0.813

**Q.** What about the relative viability (Calu-6; first compound 6.325 µM) of the same compound?
**A.** 0.339

**Q.** What about the relative viability (Calu-6; first compound 20 µM) of the same compound?
**A.** 0.208

**Q.** And the relative viability (EBC-1; first compound 0.2 µM)?
**A.** 0.801

**Q.** What about the relative viability (EBC-1; first compound 0.6325 µM) of the same compound?
**A.** 0.862

**Q.** What about the relative viability (EBC-1; first compound 2 µM) of the same compound?
**A.** 0.785

**Q.** And the relative viability (EBC-1; first compound 6.325 µM)?
**A.** 0.531

**Q.** What about the relative viability (EBC-1; first compound 20 µM) of the same compound?
**A.** 0.296

**Q.** What about the relative viability (IA-LM; first compound 0.2 µM) of the same compound?
**A.** 0.829

**Q.** And the relative viability (IA-LM; first compound 0.6325 µM)?
**A.** 0.805

**Q.** What about the relative viability (IA-LM; first compound 2 µM) of the same compound?
**A.** 0.644

**Q.** And the relative viability (IA-LM; first compound 6.325 µM)?
**A.** 0.266

**Q.** And the relative viability (IA-LM; first compound 20 µM)?
**A.** 0.148

**Q.** What about the relative viability (LOU-NH91; first compound 0.2 µM) of the same compound?
**A.** 0.704

**Q.** And the relative viability (LOU-NH91; first compound 0.6325 µM)?
**A.** 0.779

**Q.** What about the relative viability (LOU-NH91; first compound 2 µM) of the same compound?
**A.** 0.591

**Q.** What about the relative viability (LOU-NH91; first compound 6.325 µM) of the same compound?
**A.** 0.641

**Q.** And the relative viability (LOU-NH91; first compound 20 µM)?
**A.** 0.561

**Q.** What about the relative viability (NCI-H1299; first compound 0.2 µM) of the same compound?
**A.** 1.01

**Q.** What about the relative viability (NCI-H1299; first compound 0.6325 µM) of the same compound?
**A.** 1.05

**Q.** What about the relative viability (NCI-H1299; first compound 2 µM) of the same compound?
**A.** 1.06

**Q.** And the relative viability (NCI-H1299; first compound 6.325 µM)?
**A.** 1.01

**Q.** And the relative viability (NCI-H1299; first compound 20 µM)?
**A.** 0.87

**Q.** And the relative viability (NCI-H1703; first compound 0.2 µM)?
**A.** 0.329

**Q.** And the relative viability (NCI-H1703; first compound 0.6325 µM)?
**A.** 0.34

**Q.** What about the relative viability (NCI-H1703; first compound 2 µM) of the same compound?
**A.** 0.352

**Q.** What about the relative viability (NCI-H1703; first compound 6.325 µM) of the same compound?
**A.** 0.171

**Q.** And the relative viability (NCI-H1703; first compound 20 µM)?
**A.** 0.123

**Q.** What about the relative viability (NCI-H2009; first compound 0.2 µM) of the same compound?
**A.** 1.14

**Q.** And the relative viability (NCI-H2009; first compound 0.6325 µM)?
**A.** 1.21

**Q.** And the relative viability (NCI-H2009; first compound 2 µM)?
**A.** 1.23

**Q.** What about the relative viability (NCI-H2009; first compound 6.325 µM) of the same compound?
**A.** 1.04

**Q.** And the relative viability (NCI-H2009; first compound 20 µM)?
**A.** 0.987

**Q.** What about the relative viability (NCI-H2405; first compound 0.2 µM) of the same compound?
**A.** 0.787

**Q.** What about the relative viability (NCI-H2405; first compound 0.6325 µM) of the same compound?
**A.** 0.85

**Q.** And the relative viability (NCI-H2405; first compound 2 µM)?
**A.** 0.739

**Q.** What about the relative viability (NCI-H2405; first compound 6.325 µM) of the same compound?
**A.** 0.76

**Q.** And the relative viability (NCI-H2405; first compound 20 µM)?
**A.** 0.644

**Q.** What about the relative viability (NCI-H647; first compound 0.2 µM) of the same compound?
**A.** 1.23

**Q.** And the relative viability (NCI-H647; first compound 0.6325 µM)?
**A.** 1.14

**Q.** What about the relative viability (NCI-H647; first compound 2 µM) of the same compound?
**A.** 1.12

**Q.** What about the relative viability (NCI-H647; first compound 6.325 µM) of the same compound?
**A.** 0.991

**Q.** What about the relative viability (NCI-H647; first compound 20 µM) of the same compound?
**A.** 0.213
